Assay [1] concerns the target T1, human CA-IV (Homo sapiens, UniProt P22748).
T1 construct: made in house; host or cells: Escherichia coli BL21(DE3)
Put plainly: Carbonic Anhydrase-IV (CA-IV) Fluorescence Polarization Assay-IC50 Determination. The format is binding. As to conditions: read-out: IC50_CAIV. The method in brief: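 Recombinant CA-IV expressed with 800 uM ZnCl2, purified by SP-Sepharose and Sephacryl S-100 in 25 mM Tris-HCl pH 7.0, 100 mM NaCl, concentrated to 7.0 mg/mL. IC50 by fluorescence polarization.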
Background: Fluorescence polarisation rises when a labelled molecule tumbles more slowly, as on binding a larger partner.

The target in assay [2] is T2, human CA-II (Homo sapiens, UniProt P00918).
T2 construct: purchased Sigma-Aldrich C6165
Put plainly: Carbonic Anhydrase-II (CA-II) Fluorescence Polarization Tight Binding Assay-Kd Determination. The conditions noted are these: read-out: Kd_CAII. As to the method: Assays were conducted in a final volume of 100 μL in 50 mM Tris/HCl (pH 7.6), 100 mM Na2SO4 and 0.005% Tween-20 in a 96-well black assay plate. […] The assay plate was
The Kd binding was calculated using GraphPad Prism and Morrison tight binding ligand equation.

Assay [3] deals with CAI (Homo sapiens, UniProt P00915). Put plainly: CAI IC50 (no method described). Format: biochemical.

The values below come from patent publication US20100256357A1, “HETEROCYCLES USEFUL AS INHIBITORS OF CARBONIC ANHYDRASE” (Agouron Pharmaceuticals, Inc., priority 2006, published 2010).

Molecules are shown by their SMILES.

T1 sequence (P22748 19-284 limits assumed): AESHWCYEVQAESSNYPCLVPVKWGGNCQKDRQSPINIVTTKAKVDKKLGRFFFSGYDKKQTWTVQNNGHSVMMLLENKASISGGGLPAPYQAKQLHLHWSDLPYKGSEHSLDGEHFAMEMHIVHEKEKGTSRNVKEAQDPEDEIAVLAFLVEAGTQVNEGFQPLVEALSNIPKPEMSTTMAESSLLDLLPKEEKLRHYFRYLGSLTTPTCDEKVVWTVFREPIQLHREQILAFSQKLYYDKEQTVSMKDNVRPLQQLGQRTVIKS
Sequence of CAI (P00915 whole entry, species assumed): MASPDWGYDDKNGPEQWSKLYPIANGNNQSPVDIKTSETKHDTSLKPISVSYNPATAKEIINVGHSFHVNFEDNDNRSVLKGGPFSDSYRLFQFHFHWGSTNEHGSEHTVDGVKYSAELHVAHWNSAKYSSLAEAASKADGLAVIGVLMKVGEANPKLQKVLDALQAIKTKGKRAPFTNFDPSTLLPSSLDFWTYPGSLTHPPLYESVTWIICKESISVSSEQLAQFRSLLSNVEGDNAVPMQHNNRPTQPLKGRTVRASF

For the compound `CC(C)OC(=O)c1nc(Cc2ccccc2)n(-c2ccc(S(N)(=O)=O)cc2)n1` [Example P-1, Isopropyl 1-[4-(aminosulfonyl)phenyl]-5-benzyl-1H-1,2,4-triazole-3-carboxylate], the values for the IC50 in assay [1] and in assay [3] were 0.486 µM and 0.041 µM, respectively. Besides, in assay [2], the Kd stood at 0.00015 µM.
Turning to `CN(C)[C@H]1CCN(C(=O)c2nc(Cc3ccccc3)n(-c3ccc(S(N)(=O)=O)cc3F)n2)C1` [Example A-1m, 4-(5-benzyl-3-{[(3S)-3-(dimethylamino)pyrrolidin-1-yl]carbonyl}-1H-1,2,4-triazol-1-yl)-3-fluorobenzenesulfonamide], the IC50 in assay [1] turned out to be 0.429 µM; in assay [3] it was 0.021 µM. In addition, the Kd in assay [2] was found to be 0.0002 µM.
The matching figures for `CN(CCN1CCOCC1)C(=O)c1nc(Cc2ccccc2)n(-c2ccc(S(N)(=O)=O)cc2F)n1` [Example A-1k, 1-[4-(aminosulfonyl)-2-fluorophenyl]-5-benzyl-N-methyl-N-(2-morpholin-4-ylethyl)-1H-1,2,4-triazole-3-carboxamide]: 0.148 µM, 0.023 µM and 0.00022 µM.
